In brackets after ≈: the same amount, converted by molar mass. Where two headings read alike, the source gives them in different places. Residues, ends and D or L forms follow the SMILES beside them.
Tests used:
[1] = tested on: M. tuberculosis; conditions: Kinetic killing assay; ref [22]; cited from earlier work
Description: Table 6 The general characteristics and the previously reported MIC of each antimicrobial peptide used in this study. | column: MIC (µg/mL)

[2] = tested on: M. tuberculosis H37Rv; assay: Checkerboard assay (REMA read-out); type: cell-based, Mycobacterium tuberculosis; conditions: for MIC: Mycobacterium tuberculosis, H37RV, 168 h, checkerboard, agent alone; for MIC / MIC, Combined: REMA read-out, 7 days
[3] = tested on: M. tuberculosis H37Rv; design: method as in PMID 32750539, PMID 29900893; conditions: previous reports; ref [30],[31]; cited from earlier work
[4] = tested on: M. tuberculosis; conditions: cited from earlier work
[5] = tested on: M. tuberculosis H37Rv; conditions: 3 h, 100 µg/mL

In the case of CC(C)C[C@H](NC(=O)[C@H](CC(C)C)NC(=O)[C@H](CCCCN)NC(=O)[C@H](CCCCN)NC(=O)[C@@H](NC(=O)[C@H](C)N)C(C)C)C(=O)N[C@@H](CCCNC(=N)N)C(=O)N[C@@H](Cc1c[nH]c2ccccc12)C(=O)N[C@@H](Cc1c[nH]c2ccccc12)C(=O)N[C@@H](CO)C(=O)N[C@@H](CCCNC(=N)N)C(=O)N[C@@H](Cc1c[nH]c2ccccc12)C(=O)N[C@@H](Cc1c[nH]c2ccccc12)C(=O)N[C@@H](CCCCN)C(=O)N[C@@H](CCCCN)C(=O)O [AK 15-6] (H-AVKKLLRWWSRWWKK-OH; N-terminus and C-terminus assumed), the MIC [1] is listed as 37.5 µg/mL (≈ 18.1 µM).
For NNC(=O)c1ccncc1 [INH, isoniazid], the MIC [2] was 0.025 µg/mL, the FIC ([2]; combination INH + D-hLF 1-11) was 0.48 and the “MIC, Combined” value ([2]; combination INH + D-hLF 1-11) was 0.012 µg/mL. The MIC [3] was 0.03 to 0.12 µg/mL.
For CC(C)C[C@H](NC(=O)[C@H](CCCNC(=N)N)NC(=O)CNC(=O)CNC(=O)[C@@H](N)CCCNC(=N)N)C(=O)N[C@H]1CSSC[C@@H](C(=O)N[C@H](C(=O)NCC(=O)N[C@@H](CCCNC(=N)N)C(N)=O)C(C)C)NC(=O)[C@H](C(C)C)NC(=O)[C@@H]2CSSC[C@H](NC(=O)[C@H](Cc3ccc(O)cc3)NC1=O)C(=O)N[C@@H](CCCNC(=N)N)C(=O)N[C@@H](CCCNC(=N)N)C(=O)N[C@@H](CCCNC(=N)N)C(=O)N[C@@H](Cc1ccccc1)C(=O)N2 [PG-1], the “percent of mycobacterial growth inhibition” value ([4]; 128 µg/mL, ref [3] Fattorini and colleagues) is listed as 96.7%, the MIC ([4]; Plate count assay, ref [3]) is listed as 128 µg/mL (≈ 59.4 µM) and the “percent of mycobacterial growth inhibition” value [5] is listed as “approximately 94.22%”.
For CO[C@H]1/C=C/O[C@@]2(C)Oc3c(C)c(O)c4c(O)c(c(/C=N/N5CCN(C)CC5)c(O)c4c3C2=O)NC(=O)/C(C)=C\C=C\[C@H](C)[C@H](O)[C@@H](C)[C@@H](O)[C@@H](C)[C@H](OC(C)=O)[C@@H]1C [RF, rifampicin], the MIC [2] is given as 0.5 µg/mL, the “MIC, Combined” value ([2]; combination RF + D-hLF 1-11) is given as 0.031 25 µg/mL and the MIC [3] is given as 0.12 to 0.5 µg/mL.
